Laboratory results as given in patent US7148215B2, “Chemical compounds” (Aventis Pharma S.A., priority 2001, dated 2006).
Where a name gives a salt, the structure may show the parent alone.

Legend:
[1] = system: rat cerebellar granule neurons; assay: Effect of JNK inhibitors on LY294002-induced cytotoxicity in cerebellar granule cells (MTT); assay type: cell-based
Protocol: 7. Effect of JNK Inhibitors on Cytotoxicity in Cerebellar Granule Cells
LY294002 is a reversible inhibitor of PI3K and activates JNKs with subsequent cell death. We have investigated the ability of the JNK inhibitors to protect against LY294002-induced cell death in a cerebellar granule cell preparation.
Primary cerebellar cell cultures were prepared from 7-day-old Sprague-Dawley rats. Cerebella were carefully collected, dissected free of meninges and cut into 5–7 parts. Tissues were gently mechanically dissociated after digestion with VERSENE (5 minutes, 37° C.). The cells were seed onto 96-well plates pre-coated with poly-D-lysine (Becton-Dickinson) at a final density of 10^5 cells per well. Cultures were maintained at 37° C. in a humidified atmosphere with 5% CO2 and used after the 9th day of culture in DMEM medium complemented with 5% fetal calf serum, 5% horse serum and 30 mM potassium chloride in the presence of an anti-mitotic (10 μM cytosine arabinoside). The drugs were directly added to the culture at the indicated concentrations for 24 hours. Neuronal viability was assessed quantitatively by the colorimetric measurement of Mosmann or MTT assay (1983, J. Immunol. Methods, 65, 55–63). Each condition was tested in sextuplicate or triplicate and the mean values obtained analyzed statistically by one-way ANOVA, followed by Dunnett's multiple comparison test. […]

Row | SMILES | melting point | other results
1 | N#Cc1c(C(N)=O)c2n(c1C1CC1)CCN(S(=O)(=O)c1ccc(C(F)(F)F)cc1)C2 | 253 to 256 °C | 
2 | NC(=O)c1c(Cl)c(-c2ccccc2)n2c1CN(C(=O)Oc1ccccc1)CC2 | 196 to 198 °C | 
3 | NC(=O)c1c(Cl)cn2c1CN(C(=O)Nc1ccc(F)cc1)CC2 | 229 to 231 °C | 
4 | NC(=O)c1c(Cl)cn2c1CN(C(=O)Nc1ccc(-c3ccccn3)s1)CC2 | 249 to 250 °C | 
5 | NC(=O)c1c(Cl)c(-c2cccnc2)n2c1CN(S(=O)(=O)c1ccc(C(F)(F)F)cc1)CC2 | 205 to 206 °C | 
6 | Cc1c(Cl)c(C(N)=O)c2n1CCN(C(=O)Nc1cccc(F)c1)C2 | 229 to 231 °C | 
7 | O=c1cc(N2CCOCC2)oc2c(-c3ccccc3)cccc12 [LY294002, reference compound] |  | neurotoxic effect on cerebellar granule neurons ([1]; 3–100 μM added to cells cultured in high potassium medium, FIG. 1): induced neuronal death
8 | NC(=O)c1c(Cl)c(-c2ccccc2)n2c1CN(S(=O)(=O)c1cccs1)CC2 | 240 to 242 °C | 
9 | NC(=O)c1c(Cl)c(-c2ccccc2)n2c1CN(C(=O)Cc1ccccc1O)CC2 | 176 to 180 °C | 
10 | N#Cc1c(C(N)=O)c2n(c1C1CC1)CCN(C(=O)Nc1ccc(F)cc1)C2 [Example 9(a), 7-Cyano-6-cyclopropyl-3,4-dihydro-1H-pyrrolo[1,2-a]pyrazine-2,8-dicarboxylic acid 8-amide 2-[(4-fluorophenyl)amide]] | 232 to 234 °C | IC50 ([1]; Neuron, LY294002 30 μM, rat cerebellar granule cells after 9 days of culture, 24 hours, MTT, FIG. 2, read-out: protection against LY294002-induced toxicity, IC50): 7 µM
11 | NC(=O)c1c(Cl)c(C2CC2)n2c1CNCC2 (as salt: trifluoroacetic acid salt) | 237 to 239 °C | 
12 | NC(=O)c1c(Cl)cn2c1CN(S(=O)(=O)c1ccc(-c3ccccn3)s1)CC2 | 213 to 214 °C | 
13 | NC(=O)c1c(Cl)c(-c2ccccc2)n2c1CN(C(=O)CCC1CCCCC1)CC2 | 181 to 182 °C | 
14 | N#Cc1c(C(N)=O)c2n(c1C1CCOCC1)CCN(C(=O)Nc1cccc(C(F)(F)F)c1)C2 | 200 to 202 °C (dec.) | 
15 | NC(=O)c1c(Cl)c(-c2ccccc2)n2c1CN(S(=O)(=O)Nc1ccccc1)CC2 | 207 to 208 °C | 
16 | N#Cc1c(C(N)=O)c2n(c1C1CC1)CCN(C(=O)Nc1ccc(C(=O)NCCN3CCOCC3)cc1)C2 | 197 to 199 °C | 

Second part, led by results:

Row | melting point | SMILES | other results
17 | 296 to 298 °C (dec.) | N#Cc1c(C(N)=O)c2n(c1C1CCOCC1)CCN(C(=O)Nc1ccc3ncccc3c1)C2 | 
18 | 149 to 153 °C | N#Cc1c(C(N)=O)c2n(c1C1CC1)CCN(C(=O)Nc1ccc(C(F)(F)F)nc1)C2 | 
19 | 218 to 221 °C | CS(=O)(=O)N1CCC(c2c(C#N)c(C(N)=O)c3n2CCN(C(=O)Nc2ccc(C#N)cc2)C3)CC1 | 
20 | 235 to 238 °C (dec.) | Cc1ccc(-c2c(Cl)c(C(N)=O)c3n2CCN(C(=O)Nc2ccc(F)cc2)C3)cn1 | 
21 | 261 to 263 °C | NC(=O)c1c(Cl)c(-c2ccccc2)n2c1CN(C(=O)Nc1cccnc1)CC2 | 
22 | 286 to 288 °C | N#Cc1c(C(N)=O)c2n(c1-c1ccccc1)CCN(C(=O)Nc1ccc(C(=O)O)cc1)C2 | 
23 | 230 to 231 °C | NC(=O)c1c(Cl)c(C2CC2)n2c1CN(C(=O)Nc1ccc(F)cc1)CC2 [Example 16(a)] | 
24 | 196 to 198 °C | N#Cc1ccc(NC(=O)N2CCn3c(c(C(N)=O)c(Cl)c3C3CC3)C2)cc1 | 
25 | 221 to 222 °C | Cc1ccc(-c2c(Cl)c(C(N)=O)c3n2CCN(C(=O)Nc2ccc4ncccc4c2)C3)cn1 | 
26 | 177 to 180 °C | CS(=O)(=O)N1CCC(c2c(C#N)c(C(N)=O)c3n2CCN(C(=O)Nc2ccc(F)cc2)C3)CC1 | 
27 | 275 to 279 °C | N#Cc1c(C(N)=O)c2n(c1-c1cccnc1)CCN(C(=O)Nc1ccc(F)cc1)C2 | 
28 | 170 to 173 °C | COc1ccc(NC(=O)N2CCn3c(-c4ccccc4)cc(C(N)=O)c3C2)cc1 | 
29 | 266 to 267 °C | NC(=O)c1c(Cl)c(C2CC2)n2c1CN(C(=O)Nc1ccc(F)cc1)CC2 [Example 3] | 
30 | 291 to 296 °C | N#Cc1ccc(NC(=O)N2CCn3c(c(C(N)=O)c(C#N)c3-c3cccnc3)C2)cc1 | 
31 | 243 to 246 °C (dec.) | N#Cc1c(C(N)=O)c2n(c1C(F)(F)F)CCN(C(=O)Nc1ccc(C(F)(F)F)cc1)C2 | 
32 | 176 to 178 °C | COc1ccc(NC(=S)N2CCn3c(c(C(N)=O)c(Cl)c3-c3ccccc3)C2)cc1 | 
33 | 219 to 220 °C | N#Cc1c(C(N)=O)c2n(c1-c1ccccc1)CCN(C(=O)Nc1cccc(F)c1)C2 | 
34 | 246 to 248 °C | COc1ccc(NC(=O)N2CCn3c(c(C(N)=O)c(Cl)c3-c3ccccc3)C2)cc1 | 
35 | 170 °C | COc1ccc(N/C(=N\C#N)N2CCn3c(c(C(N)=O)c(Cl)c3-c3ccccc3)C2)cc1 | 
